# Assay results taken from US20240307426A1, “USE OF SGLT-2 INHIBITORS FOR THE PREVENTION AND/OR TREATMENT OF RENAL DISEASES IN NON-HUMAN MAMMALS” (BOEHRINGER INGELHEIM VETMEDICA GMBH, priority 2021, published 2024).
# Tested on: cats with chronic kidney disease (CKD)
# Experiment: Exploratory clinical field trial in cats with CKD (Example 3)
# Type: in vivo, cat
# Set-up: key to IRIS Stage (based on serum creatinine level) / IRIS Stage (based on creatinine level) / IRIS Stage (based on the creatinine level): IRIS CKD stage assigned from serum creatinine (IRIS 2019)
# Settings: for Phosphorus: ref 0.8-2.2; for Serum creatinine: ref 0.9-2.3; for Potassium: ref 3.3-5.8; for Hematocrit: ref 28.2-52.7; for UPC: ref <0.33
# Protocol: The clinical trial was conducted at three animal clinics. Overall, 9 cats with chronic kidney disease (CKD) were included in the study and treated once daily orally with 1 mg/kg bodyweight velagliflozin for up to 150 days (depending on the time of enrollment).
# Diagnosis of CKD was based on two measurements of serum creatinine concentration at least 2 weeks apart from each other (historical value and screening, and value at screening in fasted cats), as recommended by the International Renal Interest Society (IRIS 2019). In order to qualify for enrollment, serum creatinine levels needed to be ≥2.2 mg/dL, but <5.0 mg/dL.
# Disease staging throughout the study was performed based on serum creatinine levels in accordance with the IRIS CKD staging (IRIS 2019).
# All other cats were treated for >90 days had at least data for two time points under treatment available and were therefore evaluated. Progression of the disease, as well as IRIS staging in this study was based on the most reliable biomarker: serum creatinine.
# [1] = case 200-006, Visit 2 (Day 90), 1 mg/kg po once daily
# [2] = case 200-006, Visit 3 (Day 121), 1 mg/kg po once daily
# [3] = case 200-006, screening visit (before treatment)
# [4] = case 200-007, 1 mg/kg po once daily
# [5] = case 200-007, 1 mg/kg po once daily, whole study
# [6] = case 200-007, Visit 1 (Day 30), 1 mg/kg po once daily
# [7] = case 200-007, Visit 2 (Day 90), 1 mg/kg po once daily
# [8] = case 200-007, Visit 3 (Day 114), 1 mg/kg po once daily
# [9] = case 200-007, screening visit (before treatment)
# [10] = case 300-003 (IRIS stage 2), removed early on day 30
# [11] = case 300-008, 1 mg/kg po once daily
# [12] = case 300-008, 1 mg/kg po once daily, whole study
# [13] = case 300-008, Visit 1 (Day 30), 1 mg/kg po once daily
# [14] = case 300-008, Visit 2 (Day 90), 1 mg/kg po once daily
# [15] = case 300-008, Visit 3 (Day 103), 1 mg/kg po once daily
# [16] = case 300-008, screening visit (before treatment)
# [17] = case 400-004, 1 mg/kg po once daily
# [18] = case 400-004, 1 mg/kg po once daily, whole study
# [19] = case 400-004, Visit 1 (Day 30), 1 mg/kg po once daily
# [20] = case 400-004, Visit 2 (Day 90), 1 mg/kg po once daily
# [21] = case 400-004, Visit 3 (Day 119), 1 mg/kg po once daily
# [22] = case 400-004, screening visit (before treatment)
smiles,measurement,setting,value
"N#Cc1ccc([C@@H]2O[C@H](CO)[C@@H](O)[C@H](O)[C@H]2O)cc1Cc1ccc(C2CC2)cc1 [velagliflozin, Velagliflozin]",Systolic blood pressure,[1],155.3 mmHg
same,Phosphorus,[1],1.3 mmol/L
same,Serum creatinine,[1],2.7 mg/dL
same,Potassium,[1],4.4 mmol/L
same,Hematocrit,[1],37.3%
same,UPC,[1],0.2
same,BUN,[2],42 mg/dL
same,IRIS Stage (based on the creatinine level),[2],2
same,Owner assessment - quality of life,[2],good
same,Owner assessment of the appetite,[2],normal
same,Owner assessment of the drinking behavior,[2],excessive
same,Systolic blood pressure,[2],140.0 mmHg
same,Phosphorus,[2],2.0 mmol/L
same,Serum creatinine,[2],2.8 mg/dL
same,Potassium,[2],4.3 mmol/L
same,Hematocrit,[2],35.5%
same,BUN,[3],34 mg/dL
same,IRIS Stage (based on the creatinine level),[3],2
same,Owner assessment - quality of life,[3],good
same,Owner assessment of the appetite,[3],poor
same,Owner assessment of the drinking behavior,[3],excessive
same,Systolic blood pressure,[3],141.3 mmHg
same,Phosphorus,[3],1.3 mmol/L
same,Serum creatinine,[3],2.6 mg/dL
same,Potassium,[3],3.8 mmol/L
same,Hematocrit,[3],37.9%
same,UPC,[3],0.1
same,adverse events,[4],"three occasions of vomitus, two occasions of inappetence and one occasion of mild anaemia, leukocytopenia"
same,expected glucosuric effect,[4],confirmed
same,Serum creatinine levels (course),[5],increased mildly
same,Serum potassium levels (course),[5],remained stable within the reference range
same,Total urine protein and UPC,[5],mildly increased
same,drinking behavior (course),[5],improved to normal
same,quality of life (course),[5],changed from very good to good
same,the cat's condition,[5],stable
same,BUN,[6],40 mg/dL
same,IRIS Stage (based on the creatinine level),[6],3
same,Owner assessment - quality of life,[6],very good
same,Owner assessment of the appetite,[6],normal
same,Owner assessment of the drinking behavior,[6],normal
same,Systolic blood pressure,[6],122.7 mmHg
same,Phosphorus,[6],1.0 mmol/L
same,Serum creatinine,[6],3.2 mg/dL
same,Potassium,[6],4.0 mmol/L
same,Hematocrit,[6],35.9%
same,BUN,[7],42 mg/dL
same,IRIS Stage (based on the creatinine level),[7],3
same,Owner assessment - quality of life,[7],good
same,Owner assessment of the appetite,[7],normal
same,Owner assessment of the drinking behavior,[7],normal
same,Systolic blood pressure,[7],130.7 mmHg
same,Phosphorus,[7],1.3 mmol/L
same,Serum creatinine,[7],3.3 mg/dL
same,Potassium,[7],4.4 mmol/L
same,Hematocrit,[7],32.6%
same,UPC,[7],0.2
same,BUN,[8],43 mg/dL
same,IRIS Stage (based on the creatinine level),[8],3
same,Owner assessment - quality of life,[8],good
same,Owner assessment of the appetite,[8],normal
same,Owner assessment of the drinking behavior,[8],normal
same,Systolic blood pressure,[8],130.7 mmHg
same,Phosphorus,[8],1.3 mmol/L
same,Serum creatinine,[8],3.2 mg/dL
same,Potassium,[8],3.9 mmol/L
same,Hematocrit,[8],28.9%
same,BUN,[9],41 mg/dL
same,IRIS Stage (based on the creatinine level),[9],3
same,Owner assessment - quality of life,[9],very good
same,Owner assessment of the appetite,[9],normal
same,Owner assessment of the drinking behavior,[9],excessive
same,Systolic blood pressure,[9],139.3 mmHg
same,Phosphorus,[9],1.2 mmol/L
same,Serum creatinine,[9],2.9 mg/dL
same,Potassium,[9],4.4 mmol/L
same,Hematocrit,[9],37.6%
same,UPC,[9],0.1
same,evaluated clinical signs,[10],no worsening of the evaluated clinical signs
same,laboratory parameters,[10],stable laboratory parameters
same,reported events,[10],"Tooth pain, anorexia and feline odontoclastic-resorptive lesions (FORL) were reported"
same,adverse events,[11],No adverse event was reported
same,expected glucosuric effect,[11],confirmed
same,Drinking behavior according to owner's assessment (course),[12],improved from excessive to normal
same,condition (clinical signs and biochemical parameters),[12],stabilization of the condition
same,course of serum creatinine concentration,[12],remained stable
same,serum potassium and phosphate levels,[12],remained in the reference range
same,total urine protein and UPC ratio,[12],remained within the reference range
same,BUN,[13],65 mg/dL
same,IRIS Stage (based on creatinine level),[13],2
same,Owner assessment - quality of life,[13],good
same,Owner assessment of the appetite,[13],poor
same,Owner assessment of the drinking behavior,[13],normal
same,Systolic blood pressure,[13],150.0 mmHg
same,Phosphorus,[13],1.4 mmol/L
same,Serum creatinine,[13],1.9 mg/dL
same,Potassium,[13],4.9 mmol/L
same,Hematocrit,[13],28.8%
same,BUN,[14],64 mg/dL
same,IRIS Stage (based on creatinine level),[14],2
same,Owner assessment - quality of life,[14],good
same,Owner assessment of the appetite,[14],normal
same,Systolic blood pressure,[14],150.0 mmHg
same,Phosphorus,[14],1.5 mmol/L
same,Serum creatinine,[14],2.4 mg/dL
same,Potassium,[14],4.4 mmol/L
same,Hematocrit,[14],32.4%
same,UPC,[14],0.2
same,BUN,[15],54 mg/dL
same,IRIS Stage (based on creatinine level),[15],2
same,Owner assessment - quality of life,[15],good
same,Owner assessment of the appetite,[15],normal
same,Owner assessment of the drinking behavior,[15],normal
same,Systolic blood pressure,[15],148.7 mmHg
same,Phosphorus,[15],1.6 mmol/L
same,Serum creatinine,[15],2.6 mg/dL
same,Potassium,[15],4.4 mmol/L
same,Hematocrit,[15],28.2%
same,UPC,[15],0.3
same,BUN,[16],36 mg/dL
same,IRIS Stage (based on creatinine level),[16],2
same,Owner assessment - quality of life,[16],good
same,Owner assessment of the appetite,[16],normal
same,Owner assessment of the drinking behavior,[16],excessive
same,Systolic blood pressure,[16],148.0 mmHg
same,Phosphorus,[16],1.3 mmol/L
same,Serum creatinine,[16],2.4 mg/dL
same,Potassium,[16],4.9 mmol/L
same,Hematocrit,[16],26.7%
same,UPC,[16],0.2
same,adverse events,[17],One non-serious adverse event was reported (owner reported diarrhea)
same,expected glucosuric effect,[17],confirmed
same,Drinking behavior according to the owner (course),[18],improved from excessive to normal
same,UPC ratio (course),[18],remained in the normal range
same,condition (clinical signs and biochemical parameters),[18],improvement of the condition
same,course of BUN concentration,[18],decrease
same,course of serum creatinine concentration,[18],decrease
same,serum potassium and phosphate levels,[18],remained within the reference range
same,total urine protein,[18],reduced
same,BUN,[19],20.0 mg/dL
same,IRIS Stage (based on serum creatinine level),[19],3
same,Owner assessment - quality of life,[19],good
same,Owner assessment of the appetite,[19],normal
same,Owner assessment of the drinking behavior,[19],normal
same,Systolic blood pressure,[19],142.7 mmHg
same,Phosphorus,[19],1.3 mmol/L
same,Serum creatinine,[19],4.0 mg/dL
same,Potassium,[19],3.9 mmol/L
same,Hematocrit,[19],41.0%
same,BUN,[20],19.3 mg/dL
same,IRIS Stage (based on serum creatinine level),[20],3
same,Owner assessment - quality of life,[20],good
same,Owner assessment of the appetite,[20],poor
same,Owner assessment of the drinking behavior,[20],normal
same,Systolic blood pressure,[20],157.3 mmHg
same,Phosphorus,[20],1.3 mmol/L
same,Serum creatinine,[20],3.2 mg/dL
same,Potassium,[20],3.8 mmol/L
same,Hematocrit,[20],45.0%
same,UPC,[20],0.1
same,BUN,[21],24.3 mg/dL
same,IRIS Stage (based on serum creatinine level),[21],3
same,Owner assessment - quality of life,[21],good
same,Owner assessment of the appetite,[21],normal
same,Owner assessment of the drinking behavior,[21],normal
same,Systolic blood pressure,[21],149.3 mmHg
same,Phosphorus,[21],1.5 mmol/L
same,Serum creatinine,[21],2.9 mg/dL
same,Potassium,[21],4.0 mmol/L
same,Hematocrit,[21],45.0%
same,BUN,[22],20.2 mg/dL
same,IRIS Stage (based on serum creatinine level),[22],3
same,Owner assessment - quality of life,[22],good
same,Owner assessment of the appetite,[22],normal
same,Owner assessment of the drinking behavior,[22],excessive
same,Systolic blood pressure,[22],151.3 mmHg
same,Phosphorus,[22],1.4 mmol/L
same,Serum creatinine,[22],4.2 mg/dL
same,Potassium,[22],4.3 mmol/L
same,Hematocrit,[22],44.0%
same,UPC,[22],0.1
same,Clinical signs related to CKD,"evaluated cats, 1 mg/kg po once daily",either remained good/stable or improved in the majority of cats
same,"risk factors for progression of the disease (e.g. UPC, blood pressure, potassium, phosphorus)","feline CKD patients, 1 mg/kg orally once daily",remained stable and within the reference range
same,IRIS staging,one of the 3 cats with decreased serum creatinine (stage 3->stage 2),improved by one category
same,complications of CKD,"oral 1 mg/kg bodyweight once daily, evaluated cats",no complications of CKD observed
same,laboratory parameters related to CKD (serum creatinine) and clinical signs,the other 4 of seven evaluated cats,stable condition
